What was measured:
S. aureus DSM 20231 [1] = experiment: fitness (endpoint OD595 vs no drug) (fraction); higher = more growth
In short: (§1)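 Volumes were 30 µl per well, or 55 µl for S. pneumoniae, in 384-well plates inoculated at OD595 0.01. Media were TSB, LB Lennox or CY at 37 °C, and OD595 was read every 30 min for 14 h with first-reading background subtraction. Fitness is the ratio of optical density at stationary-phase entry to the robust mean of no-drug controls. That ratio is capped at 1.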

B. subtilis 168 [2] = experiment: as above
In short: as §1

S. aureus DSM 20231 [3] = experiment: Bliss interaction score (quartile over a dose matrix) (fitness difference); higher = more antagonism (negative = synergy)
In short: (§2)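 Each plate was normalised to the robust mean of its own no-drug wells, using OD595 at entry into stationary phase, with values capped at 1. This normalised growth is the fitness value. The Bliss score is the difference between observed and product-expected fitness, with single-drug fitness inferred from the combination data and quartiles taken over technical, biological and donor/recipient replicates.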

S. pneumoniae D39V = experiment: as above
In short: as §2

B. subtilis 168 [4] = experiment: as above
In short: as §2

S. aureus Newman [5] = experiment: as above
In short: as §2

S. aureus Newman [6] = experiment: fitness (endpoint OD595 vs no drug) (fraction); higher = more growth; conditions: main component drawn
In short: as §1

[7] = first compound 0.25 µg/mL, partner 0.5 µg/mL
[8] = first compound 0.5 µg/mL, partner 0.25 µg/mL
[9] = first compound 0.5 µg/mL, partner 0.5 µg/mL
[10] = first compound 0.25 µg/mL, partner 0.1 µg/mL
[11] = first compound 0.25 µg/mL, partner 0.2 µg/mL
[12] = first compound 0.5 µg/mL, partner 0.1 µg/mL
[13] = first compound 0.5 µg/mL, partner 0.2 µg/mL
[14] = first compound 0.5 µg/mL, partner 0.4 µg/mL
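Wherever Bliss interaction score (quartile over a dose matrix) is given: first quartile when negative (synergy) and third quartile when positive (antagonism).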

Compound: CC[C@H]1OC(=O)[C@H](C)[C@@H](O[C@H]2C[C@@](C)(OC)[C@@H](O)[C@H](C)O2)[C@H](C)[C@@H](O[C@@H]2O[C@H](C)C[C@H](N(C)C)[C@H]2O)[C@](C)(O)C[C@@H](C)CN(C)[C@H](C)[C@@H](O)[C@]1(C)O [Azithromycin] + CC(=O)NC[C@H]1CN(c2ccc(N3CCOCC3)c(F)c2)C(=O)O1 [Linezolid]
- fitness (S. aureus DSM 20231 [1]; first compound 0.125 µg/mL, partner 0.125 µg/mL): 0.768
- fitness (S. aureus DSM 20231 [1]; first compound 0.125 µg/mL, partner 0.25 µg/mL): 0.608
- fitness (S. aureus DSM 20231 [1]; first compound 0.125 µg/mL, partner 1 µg/mL, one replicate): 0.0489
- fitness (S. aureus DSM 20231 [1]; first compound 0.25 µg/mL, partner 0.125 µg/mL): 0.744
- fitness (S. aureus DSM 20231 [1]; first compound 0.25 µg/mL, partner 0.25 µg/mL): 0.557
- fitness (S. aureus DSM 20231 [1]; [7]): 0.151
- fitness (S. aureus DSM 20231 [1]; first compound 0.25 µg/mL, partner 1 µg/mL, one replicate): 0.0402
- fitness (S. aureus DSM 20231 [1]; [8]): 0.191
- fitness (S. aureus DSM 20231 [1]; [9]): 0.0625
- fitness (S. aureus DSM 20231 [1]; first compound 0.5 µg/mL, partner 1 µg/mL, one replicate): 0.0193
- fitness (B. subtilis 168 [2]; [7]): 0.0659
- fitness (B. subtilis 168 [2]; first compound 0.5 µg/mL, partner 0.0625 µg/mL, one replicate): 0.759
- fitness (B. subtilis 168 [2]; [8]): 0.106
- fitness (B. subtilis 168 [2]; [9]): 0.0597
- fitness (B. subtilis 168 [2]; first compound 1 µg/mL, partner 0.0625 µg/mL, one replicate): 0.287
- fitness (B. subtilis 168 [2]; first compound 1 µg/mL, partner 0.5 µg/mL): 0.0407
- fitness (B. subtilis 168 [2]; first compound 2 µg/mL, partner 0.0625 µg/mL, one replicate): 0.023
- fitness (B. subtilis 168 [2]; first compound 2 µg/mL, partner 0.125 µg/mL, one replicate): 0
- fitness (B. subtilis 168 [2]; first compound 2 µg/mL, partner 0.25 µg/mL, one replicate): 0.029
- Bliss interaction score (S. aureus DSM 20231 [3]): -0.0673
- Bliss interaction score (S. pneumoniae D39V): -0.0318
- Bliss interaction score (B. subtilis 168 [4]): -0.0849
- Bliss interaction score (S. aureus Newman [5]): -0.0582

Compound: CC[C@H]1OC(=O)[C@H](C)[C@@H](O[C@H]2C[C@@](C)(OC)[C@@H](O)[C@H](C)O2)[C@H](C)[C@@H](O[C@@H]2O[C@H](C)C[C@H](N(C)C)[C@H]2O)[C@](C)(O)C[C@@H](C)CN(C)[C@H](C)[C@@H](O)[C@]1(C)O [Azithromycin] + CCCCCCCCCC(=O)N[C@@H]1[C@H]([C@@H]([C@H](O[C@H]1OC2=C3C=C4C=C2OC5=C(C=C(C=C5)[C@H]([C@H]6C(=O)N[C@@H](C7=C(C(=CC(=C7)O)OC8[C@H]([C@H]([C@@H]([C@H](O8)CO)O)O)O)C9=C(C=CC(=C9)[C@H](C(=O)N6)NC(=O)[C@@H]4NC(=O)[C@@H]1C2=CC(=CC(=C2)OC2=C(C=CC(=C2)[C@H](C(=O)N[C@H](CC2=CC(=C(O3)C=C2)Cl)C(=O)N1)N)O)O)O)C(=O)O)O[C@H]1[C@@H]([C@H]([C@@H]([C@H](O1)CO)O)O)NC(=O)C)Cl)CO)O)O [Teicoplanin]
- fitness (S. aureus DSM 20231 [1]; first compound 0.125 µg/mL, partner 0.1562 µg/mL, main component drawn): 0.915
- fitness (S. aureus DSM 20231 [1]; first compound 0.125 µg/mL, partner 0.3125 µg/mL, main component drawn): 0.924
- fitness (S. aureus DSM 20231 [1]; first compound 0.125 µg/mL, partner 0.625 µg/mL, main component drawn): 0.991
- fitness (S. aureus DSM 20231 [1]; first compound 0.25 µg/mL, partner 0.1562 µg/mL, main component drawn): 0.935
- fitness (S. aureus DSM 20231 [1]; first compound 0.25 µg/mL, partner 0.3125 µg/mL, main component drawn): 0.987
- fitness (S. aureus DSM 20231 [1]; first compound 0.25 µg/mL, partner 0.625 µg/mL, main component drawn): ≥ 1
- fitness (S. aureus Newman [6]; first compound 0.125 µg/mL, partner 0.1562 µg/mL): 0.899
- fitness (S. aureus Newman [6]; first compound 0.125 µg/mL, partner 0.3125 µg/mL): 0.928
- fitness (S. aureus Newman [6]; first compound 0.125 µg/mL, partner 0.62 µg/mL, one replicate): 0.799
- fitness (S. aureus Newman [6]; first compound 0.125 µg/mL, partner 0.625 µg/mL): ≥ 1
- fitness (S. aureus Newman [6]; first compound 0.125 µg/mL, partner 1.24 µg/mL, one replicate): 0.786
- fitness (S. aureus Newman [6]; first compound 0.125 µg/mL, partner 2.48 µg/mL, one replicate): 0.57
- fitness (S. aureus Newman [6]; first compound 0.25 µg/mL, partner 0.1562 µg/mL): 0.978
- fitness (S. aureus Newman [6]; first compound 0.25 µg/mL, partner 0.3125 µg/mL): 0.974
- fitness (S. aureus Newman [6]; first compound 0.25 µg/mL, partner 0.62 µg/mL, one replicate): 0.998
- fitness (S. aureus Newman [6]; first compound 0.25 µg/mL, partner 0.625 µg/mL): 0.775
- fitness (S. aureus Newman [6]; first compound 0.25 µg/mL, partner 1.24 µg/mL, one replicate): 0.812
- fitness (S. aureus Newman [6]; first compound 0.25 µg/mL, partner 2.48 µg/mL, one replicate): 0.55
- fitness (S. aureus Newman [6]; first compound 0.5 µg/mL, partner 0.62 µg/mL, one replicate): 0.863
- fitness (S. aureus Newman [6]; first compound 0.5 µg/mL, partner 1.24 µg/mL, one replicate): 0.896
- fitness (S. aureus Newman [6]; first compound 0.5 µg/mL, partner 2.48 µg/mL, one replicate): 0.579
- Bliss interaction score (S. aureus DSM 20231 [3]; main component drawn): 0.104
- Bliss interaction score (S. pneumoniae D39V; main component drawn): 0.0706
- Bliss interaction score (B. subtilis 168 [4]; main component drawn): -0.0653
- Bliss interaction score (S. aureus Newman [5]; main component drawn): 0.169

Compound: CC[C@H]1OC(=O)[C@H](C)[C@@H](O[C@H]2C[C@@](C)(OC)[C@@H](O)[C@H](C)O2)[C@H](C)[C@@H](O[C@@H]2O[C@H](C)C[C@H](N(C)C)[C@H]2O)[C@](C)(O)C[C@@H](C)CN(C)[C@H](C)[C@@H](O)[C@]1(C)O [Azithromycin] + CCC[C@@H]1C[C@@H](C(=O)N[C@@H]([C@H]2O[C@H](SC)[C@H](O)[C@@H](O)[C@H]2O)[C@@H](C)O)N(C)C1 [Lincomycin]
- fitness (S. aureus DSM 20231 [1]; first compound 0.125 µg/mL, partner 0.1 µg/mL): 0.873
- fitness (S. aureus DSM 20231 [1]; first compound 0.125 µg/mL, partner 0.2 µg/mL): 0.754
- fitness (S. aureus DSM 20231 [1]; [10]): 0.89
- fitness (S. aureus DSM 20231 [1]; [11]): 0.583
- fitness (S. aureus DSM 20231 [1]; [12]): 0.386
- fitness (S. aureus DSM 20231 [1]; [13]): 0.147
- fitness (S. aureus DSM 20231 [1]; [14]): 0.106
- fitness (B. subtilis 168 [2]; [10]): 0.777
- fitness (B. subtilis 168 [2]; [11]): 0.78
- fitness (B. subtilis 168 [2]; first compound 0.25 µg/mL, partner 0.4 µg/mL): 0.833
- fitness (B. subtilis 168 [2]; first compound 0.25 µg/mL, partner 0.8 µg/mL): 0.865
- fitness (B. subtilis 168 [2]; first compound 0.25 µg/mL, partner 1.6 µg/mL): 0.887
- fitness (B. subtilis 168 [2]; [12]): 0.82
- fitness (B. subtilis 168 [2]; [13]): 0.817
- fitness (B. subtilis 168 [2]; [14]): 0.876
- fitness (B. subtilis 168 [2]; first compound 0.5 µg/mL, partner 0.8 µg/mL): 0.797
- fitness (B. subtilis 168 [2]; first compound 0.5 µg/mL, partner 1.6 µg/mL): 0.77
- fitness (B. subtilis 168 [2]; first compound 1 µg/mL, partner 0.1 µg/mL): 0.714
- fitness (B. subtilis 168 [2]; first compound 1 µg/mL, partner 0.2 µg/mL): 0.734
- fitness (B. subtilis 168 [2]; first compound 2 µg/mL, partner 0.1 µg/mL, one replicate): 0.401
- fitness (B. subtilis 168 [2]; first compound 2 µg/mL, partner 0.2 µg/mL, one replicate): 0.24
- fitness (B. subtilis 168 [2]; first compound 2 µg/mL, partner 0.4 µg/mL, one replicate): 0.202
- Bliss interaction score (S. aureus DSM 20231 [3]): -0.0854
- Bliss interaction score (S. pneumoniae D39V): 0.0603
- Bliss interaction score (B. subtilis 168 [4]): 0.098
- Bliss interaction score (S. aureus Newman [5]): -0.105
